# Results from patent US20090221538A1, “METHODS OF TREATING MULTIPLE SCLEROSIS BY ADMINISTERING PULSE DOSE CALCITRIOL” (priority 2008, published 2009).
# Columns and labels:
# [1] = test system: B10.PL mice with acute EAE; assay: Treatment of MBP-induced acute EAE in B10.PL mice, daily clinical EAE disability score; type: in vivo; parameters: key to cumulative disability (sum of daily disability scores; mean) / Cumulative disability / EAE severity (initial) / Remission (minimum) / EAE severity (final) / EAE severity (decrease): EAE score 0 = normal to 5 = moribund; cumulative = sum of daily scores
# Method: Breeding pairs of B10.PL-H2^uH2-T18^a/(73NS)/SnJ (hereafter B10.PL) mice were purchased from the Jackson Laboratory (Bar Harbor, Me.). The experimental B10.PL mice were either bred in the pathogen-free mouse colony at the University of Wisconsin Department of Biochemistry, or purchased from the Jackson Laboratory. Mice were housed at 23° C. with 40-60% humidity, 12 hr light-dark cycles, and ad libidum access to water. Unless stated otherwise, the mice were fed Lab Diet #5008 (PMI Nutrition International, Inc., Brentwood, Mo.) containing 0.33 μg/d vitamin D3 and 1% calcium. Experiments used male and female mice aged 6-8 wks (age- and sex-matched within experiments). The University of Wisconsin College of Agricultural and Life Sciences Institutional Animal Care and Use Committee approved all of the experimental protocols.
# Bovine myelin basic protein (Sigma Chemical Co., St. Louis, Mo.) was dissolved at 2 mg/mL in 0.1 N acetic acid and emulsified with Complete Freund's adjuvant containing heat-killed Mycobacterium tuberculosis H37 Ra solution (Difco). Each mouse was injected subcutaneously with 0.1 mL emulsion in each hind flank (400 micrograms of MBP per mouse). On the day of immunization and again 2 days later, 200 nanograms of pertussis toxin was injected into the peritoneum. Thereafter, clinical EAE signs were scored daily as follows: 0, normal; 1, limp tail; 1.5, partial paralysis of one hind limb; 2, partial paralysis of both hind limbs; 2.5 partial paralysis of one hind limb and complete paralysis of one hind limb; 3, paralysis of both hind limbs; 4, hind and fore limb paralysis; 5, moribund.
# The vitamin D3 and 1,25-(OH)2D3 were obtained from Sigma Chemical Co. The vitamin D3 was dissolved in safflower oil and stored in the dark at 5° C. The 1,25-(OH)2D3 was dissolved in 100% ethanol (1 mg/mL) and stored in the dark under nitrogen gas at −20° C. The concentration of 1,25-(OH)2D3 was determined by spectral analysis. Animals with stage 2.3±0.3 were randomized into treatment groups. The details of the treatments are given in the figure legends and table footnotes. The synthetic diet used in some experiments was formulated to contain all essential nutrients except vitamin D3 and was prepared exactly as we described (Spach and Hayes, 2005, J. Immunol. 175:4119-4126). For experiments using supplementary vitamin D3, the placebo group was fed the synthetic diet ad libidum without added vitamin D3, whereas the vitamin D3-supplemented group was fed the synthetic diet ad libidum with vitamin D3 added in an amount to provide 1 μg/d, calculated based on a daily measured consumption of 4.0 g dry weight of diet per mouse. Fresh synthetic diet was provided three times per week. At several times during the study, mice were weighed and blood samples were obtained from the tail vein. At the conclusion of the study, the mice were euthanized, a blood sample was obtained, perfusion was done, and the spinal cords and optic nerves were removed. The spinal cords were flash frozen with liquid nitrogen and stored at −70° C. prior to 1,25-(OH)2D3 extraction. Alternatively, the spinal cords were divided into 6 equal sections, aligned vertically, snap frozen in O.C.T. compound (Sakura Finetek USA, Torrance, Calif.) and stored at −70° C. for histopathology. The blood was clotted, centrifuged, and the decanted serum was frozen at −70° C. prior to analysis.
# Individual mice were analyzed and the mean and SD were calculated for each group of mice. Experiments were repeated at least once. The significance of differences between the group means was determined using the Mann-Whitney test (n≦16), Student's t-test (n>16), or Chi-squared test (binomial data); p<0.05 was considered significant.
# Serum calcium analysis = type: in vivo, mouse; settings: mice with EAE, 1 μg/day vitamin D3, end of the 28 day study
# Method: Blood was collected, clotted, and centrifuged (2,000×g for 10 min) at 6° C. The serum was decanted and stored at −20° C. The samples, standards, and buffer blanks (2 μL each) were aliquoted into duplicate wells of a 96-well plate. The calcium detection reagent was prepared according to the manufacturer's directions (Sigma Diagnostics. St. Louis, Mo.), and 0.25 mL was added to each well. The absorbance at 570 nm less the blank was measured 10 to 30 min later. The Ca^++ mmol/L serum was determined from a standard curve.
# [2] = Serum 25-(OH)D3 radioimmunoassay; settings: mice with EAE (score 1.5±0.5), 1 μg/day vitamin D3, end of the 28 day study
# Method: The serum was extracted and the 25-(OH)D3 (DiaSorin, Stillwater, Minn.) and calcitriol (Nichols Institute Diagnostics, San Juan Capistrano, Calif.) concentrations were determined in duplicate with radioimmunoassay kits according to the manufacturer's protocols.
# MS = settings: cited from earlier work
# [3] = female and male B10.PL mice, chow-fed, 0.5 (female) or 1.0 (male) nmol injected once, 14 days post treatment
compound,measurement,setting,value
C[C@H]1C[C@@H]2[C@H]([C@@H](O)C[C@@]3(C)[C@H]2CC[C@]3(O)C(=O)CO)[C@@]2(C)C=CC(=O)C=C12 [Methyl-prednisolone],mice in which remission was induced,"[1]; chow-fed male and female mice with EAE (score 2.3±0.4), 200 μg/d oral methyl-prednisolone",100%
same,time to remission,"[1]; chow-fed male and female mice with EAE, 200 μg/d oral methyl-prednisolone",6 ± 2 days
same,Cumulative disability,[1]; [3],24.8 ± 6.9
same,EAE severity (decrease),[1]; [3],0.8 ± 0.7
same,Remission (%),[1]; [3],40%
same,Remission (days in),[1]; [3],3.0 ± 4.1 days
same,Remission (days to),[1]; [3],3.0 ± 0.0 days
same,EAE severity (initial),"[1]; female and male B10.PL mice, chow-fed, 0.5 (female) or 1.0 (male) nmol of steroid compound injected once, score at randomization",2.0 ± 0.0
C=C1CC[C@H](O)C/C1=C/C=C1\CCC[C@]2(C)[C@@H]([C@H](C)CCCC(C)C)CC[C@@H]12 [vitamin D3],effect on clinical disability in mice with EAE,"[1]; 1 μg/day vitamin D3, 28 day study",no effect
same,cumulative disability (sum of daily disability scores; mean),"[1]; mice with EAE, 1 μg/day vitamin D3, 28 day study, both groups",71±18
same,mortality,"[1]; mice with EAE, 1 μg/day vitamin D3, 28 day study, both groups (supplemented and un-supplemented)",9-14%
same,serum calcium levels,Serum calcium analysis,9.6 ± 1.5 mg/dL
same,serum 25-(OH)D3,[2],8217 nmol/L
Natalizumab: an integrin-specific monoclonal antibody (mAb),adverse risks,"MS; human, in vivo",increased the risk of cardiac problems and fatal progressive multifocal leukoencephalopathy
same,slowing of disability progression,MS; over two years,~42%
glatiramer acetate,disability progression,"MS; RRMS, PPMS or SPMS patients",did not slow disability progression
same,reduction of the relapse rate,MS; some relapsing-remitting MS (RRMS),~35%
